How the values were obtained:
[1] = system: S. aureus MRSA (ATCC BAA-1556); experiment: Killing curve (CFU counting); type: cell-based, Staphylococcus aureus; details: Triafluocyl 20 μg/ml
Experimental: S. aureus MRSA (ATCC BAA-1556) was grown overnight in brain heart infusion (BHI) medium, diluted 1:100 in fresh BHI, and incubated aerobically at 37° C. until bacteria growth reached a logarithmic phase (OD600=0.25-0.3).
Triafluocyl (Cayman Chemical, Item No. 15425) (20 μg/ml), Vancomycin (Sigma, 4 μg/ml or 10 μg/ml), Minocycline (Sigma, 8 μg/ml) or a solvent (DMSO) were added to 5 ml of S. aureus MRSA suspensions.
Bacterial growth for S. aureus MRSA was measured after different time intervals by counting the colony-forming units after plating appropriate culture dilutions on BHI agar plates.
S. aureus MRSA (ATCC BAA-1556) was grown overnight in BHI medium, then a 1:100 inoculum was diluted in fresh BHI and incubated aerobically at 37° C. until bacteria growth reached a logarithmic phase (OD600=0.25-0.3). The culture was split into two and challenged with 38 μM Fluometacyl (=18.2 μg/ml) or DMSO (Ctrl). Bacterial growth was measured after different time intervals by counting the colony-forming units after plating appropriate culture dilutions on BHI agar plates. (N=2)

[2] = system: Escherichia coli (ATCC 8739); experiment: MIC determination with or without polymyxin B nonapeptide (PMBN); type: cell-based; details: PMBN alone up to 40 μg/ml
Experimental: Determination of Minimal Inhibitory Concentration (MIC) and Minimal Bactericidal Concentration (MBC) of Triafluocyl (Cayman Chemical, Item No. 15425) in presence of polymyxin B nonapeptide (PMBN) (Sigma-Aldrich Merk, Item No. P2076) against Escherichia coli (ATCC 8739). […] A single colony grown on a Luria-Bertani Agar (LB) plate was resuspended and cultured in LB medium overnight (O/N) in aerobic conditions (37° C. with 220 rpm shaking), next day a 1:50 inoculum in Mueller-Hinton broth (MHB) is incubated in aerobic conditions for 1 h30 (OD=0.08-0.1) and an inoculum corresponding to 3×10^6 colony forming unit (CFU)/ml, is incubated in presence or absence of different concentrations of Triafluocyl in 1% DMSO with or without 40 μg/ml Polymyxin B nonapeptide (PMBN) for 18 hr in aerobic conditions (37° C. with 220 rpm shaking). Growth of Escherichia coli in 7 conditions depicted in FIG. 11 is evaluated by reading the OD of each culture at 600 nm (OD600) in a spectrophotometer (Victor 3-Perkin Elmer). Determination of Minimal Inhibitory Concentration (MIC) and Minimal Bactericidal Concentration (MBC) of Fluometacyl in presence of polymyxin B nonapeptide (PMBN) (Sigma-Aldrich Merk, Item No. P2076) against Escherichia coli (ATCC 8739). The Minimal Inhibitory Concentration (MIC) represents the concentration, in a liquid culture, at which there is no visible growth of bacteria (no pellet or cloudiness), i.e. ΔOD at 600 nm equal to zero wherein ΔOD is the difference between the resulting optical density (OD) with the molecule together with PMBN, and the optical density (OD) of the blank (blank is the medium alone). A single colony grown on a Luria-Bertani Agar (LB) plate is resuspended and cultured in LB medium overnight (O/N) in aerobic conditions (37° C. with 220 rpm shaking), next day a 1:50 inoculum in Mueller-Hinton broth (MHB) is incubated in aerobic conditions for 1 h30 (OD=0.08-0.1) and an inoculum corresponding to 3×10^6 colony forming unit (CFU)/ml is incubated in presence or absence of different concentrations of Fluometacyl in 1% DMSO (vehicle) with or without 40 μg/ml Polymyxin B nonapeptide (PMBN) for 18 hr in aerobic conditions (37° C. with 220 rpm shaking). Growth of bacteria in the 7 individual cultures (FIG. 12A) is evaluated by reading the OD of each culture at 600 nm (OD600) in a spectrophotometer (Victor 3-Perkin Elmer).

CN[C@H](CC(C)C)C(=O)N[C@H]1C(=O)N[C@@H](CC(N)=O)C(=O)N[C@H]2C(=O)N[C@H]3C(=O)N[C@H](C(=O)N[C@H](C(=O)O)c4cc(O)cc(O)c4-c4cc3ccc4O)[C@H](O)c3ccc(c(Cl)c3)Oc3cc2cc(c3O[C@@H]2O[C@H](CO)[C@@H](O)[C@H](O)[C@H]2O[C@H]2C[C@](C)(N)[C@H](O)[C@H](C)O2)Oc2ccc(cc2Cl)[C@H]1O [Vancomycin, reference compound]
effect on S. aureus MRSA viable count after the first two hours ([1]; Vancomycin 10-fold MIC, Minocycline 8-fold MIC, FIG. 8A): ineffective | bactericidal effect over the 24 h-experiment compared with Triafluocyl ([1]; Vancomycin 4 or 10 μg/ml, Minocycline 8 μg/ml): less efficient

polymyxin B nonapeptide [PMBN, reference compound]
inhibition of E. coli growth [2]: unable to inhibit E. coli growth
